From patent publication US20050113566A1, “Inhibitors of C-FMS kinase” (priority 2003, published 2005) come the findings set out here.

The target of this experiment is c-fms (Homo sapiens, UniProt P07333). The experiment in a line: autophosphorylation, fluorescence polarization competition immunoassay for c-fms inhibition. Format: biochemical. As to conditions: 10 nM c-fms, 1 mM ATP; for IC50: averages of three independent measurements; for inhibition at 2 µM: at 2 μM compound. The method, then:
The assay buffer used was 100 mM 4-(2-hydroxyethyl)piperazine 1-ethanesulfonic acid (HEPES), pH 7.5, 1 mM 1,4-dithio-DL-threitol (DTT), 0.01% (v/v) Tween-20. Compounds were diluted in assay buffer containing 4% dimethylsulfoxide (DMSO) just prior to the assay. To each well, 5 μL of compound were added followed by the addition of 3 μL of a mix containing 33 nM c-fms (Johnson & Johnson PRD) and 16.7 mM MgCl2 (Sigma) in assay buffer. The kinase reaction was initiated by adding 2 μL of 5 mM ATP (Sigma) in assay buffer. The final concentrations in the assay were 10 nM c-fms, 1 mM ATP, 5 mM MgCl2, 2% DMSO. Control reactions were ran in each plate: in positive and negative control wells, assay buffer (made 4% in DMSO) was substituted for the compound; in addition, positive control wells received 1.2 μL of 50 mM ethylenediaminetetraaceticacid (EDTA).
The plates were incubated at room temperature for 45 min. At the end of the incubation, the reaction was quenched with 1.2 μL of 50 mM EDTA (EDTA was not added to the positive control wells at this point; see above). Following a 5-min incubation, each well received 10 μL of a 1:1:3 mixture of anti-phosphotyrosine antibody, 10×, PTK green tracer, 10× (vortexed), FP dilution buffer, respectively (all from PanVera, cat. # P2837). The plate was covered, incubated for 30 min at room temperature and the fluorescence polarization was read on the Analyst. The instrument settings were: 485 nm excitation filter; 530 nm emission filter; Z height: middle of well; G factor: 0.93. […] The reported IC50 values are averages of three independent measurements.
Background: In fluorescence polarisation assays a small probe gives low polarisation when free and higher when bound to something large.

Broadly, the IC50 is the concentration that inhibits the measured activity by half. Read a high IC50 as lower potency. As a reminder, the inhibition is the relative decrease from the control value, in per cent. Read a low inhibition as little suppression.

Chain of c-fms (P07333 20-972): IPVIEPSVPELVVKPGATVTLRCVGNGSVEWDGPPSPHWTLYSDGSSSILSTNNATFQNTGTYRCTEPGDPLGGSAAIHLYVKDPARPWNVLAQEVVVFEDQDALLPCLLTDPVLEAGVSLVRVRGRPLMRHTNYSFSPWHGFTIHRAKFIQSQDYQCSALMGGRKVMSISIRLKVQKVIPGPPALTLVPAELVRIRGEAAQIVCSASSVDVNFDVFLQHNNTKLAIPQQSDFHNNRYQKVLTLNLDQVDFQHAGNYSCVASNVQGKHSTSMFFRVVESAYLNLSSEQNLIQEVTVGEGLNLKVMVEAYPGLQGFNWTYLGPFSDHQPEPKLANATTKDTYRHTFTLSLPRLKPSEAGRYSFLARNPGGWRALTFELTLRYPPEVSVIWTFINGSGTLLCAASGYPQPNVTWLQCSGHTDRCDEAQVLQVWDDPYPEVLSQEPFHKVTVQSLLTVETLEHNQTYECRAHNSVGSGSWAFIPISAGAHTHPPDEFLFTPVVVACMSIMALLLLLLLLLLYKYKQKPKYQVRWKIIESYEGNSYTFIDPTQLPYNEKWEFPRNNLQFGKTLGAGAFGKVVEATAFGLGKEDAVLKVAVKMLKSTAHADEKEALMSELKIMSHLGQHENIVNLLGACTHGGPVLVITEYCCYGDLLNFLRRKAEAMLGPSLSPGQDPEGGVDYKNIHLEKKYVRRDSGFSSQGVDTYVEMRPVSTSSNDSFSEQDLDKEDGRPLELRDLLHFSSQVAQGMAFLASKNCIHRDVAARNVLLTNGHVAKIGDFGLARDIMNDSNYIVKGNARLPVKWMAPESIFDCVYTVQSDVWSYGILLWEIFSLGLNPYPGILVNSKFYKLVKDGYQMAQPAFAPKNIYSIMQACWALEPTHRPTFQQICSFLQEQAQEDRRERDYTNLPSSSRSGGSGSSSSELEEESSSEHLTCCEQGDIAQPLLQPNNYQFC

The molecule `N#Cc1ccc(C(=O)Nc2ccccc2-c2ccccc2)o1` showed an IC50 of less than 5 µM and an inhibition at 2 µM of 54%.
`N#Cc1ccc(C(=O)Nc2ccccc2C2=CCCCC2)o1`: the IC50 is less than 1 µM and at 2 µM the inhibition was 85%.
`N#Cc1ccc(C(=O)Nc2ccccc2-c2ccco2)o1` yielded an inhibition at 2 µM of 13%.
Still for that read-out and setting: the value for `N#Cc1ccc(C(=O)Nc2ccccc2-c2cccs2)o1` was 25%.
Molecule `N#Cc1ccc(C(=O)Nc2ccccc2C2CCCCC2)o1` gave an inhibition at 2 µM of 29%.
